Assays:
LS patient cells [1] = assay: Ciliogenesis assay; format: cell-based, Human; settings: serum starvation
Procedure: Cells were seeded on glass cover slips and grown for 24 h in complete media. Then media was replaced by 0.1% serum DMEM (starvation media) containing vehicle or the drug to induce ciliogenesis for the indicated times. Cells were then fixed in 4% formaldehyde—PBS for 10 min and immuno-labeled with anti-acetylated tubulin antibody (see Table 2). At least 50 cells were imaged for every experiment and experiments were repeated at least thrice. The fraction of cells displaying cilia and cilia length were determined as described previously (Coon et al. (2012), supra).

mTOR pathway in LS cells = assay: Western blotting of PI3K/Akt/mTOR pathway; format: cell-based, Human
Procedure: Normal and LS cells were seeded on 100 mm plates and grown to 60-70% confluency in complete media. Then media was exchanged with 0.1% serum DMEM media with DMSO or 10 nM rapamycin for 12 hrs. The cells were washed twice with ice-cold PBS, collected by scraping cells in 200 μl/plate of lysis buffer (25 mM HEPES-KOH, pH7.4, 250 mM NaCl, 1% Triton-X-100 supplement with phosphatase and protease inhibitors), and lysed by passing the cells 10 times through a 26G1/2 needle. The lysates were centrifuged at 14,000×g for 20 min at 4° C., and the supernatant fractions were collected. The samples were analyzed by SDS-PAGE using 7% or 10% polyacrylamide gels and transferred to nitrocellulose membranes. The membranes were blocked with 5% skim milk in PBST (1× phosphate-buffered saline with Tween® detergent) and immunoblotted with the indicated primary and HRP-conjugated secondary antibodies.
The activation of the Akt and mTOR signaling pathways in LS cells treated or not with rapamycin was examined. Cell lysates were prepared, resolved by SDS-PAGE and the presence of phosphorylated and dephosphorylated key elements of the Akt and mTOR pathways were investigated by Western blotting with specific antibodies (FIG. 5D).

LS patient cells [2] = assay: Cell spreading assay after a predetermined time-point (cell area); format: cell-based, Human; settings: for LS cell spreading phenotype: LS patient fibroblasts, 30 min after seeding on fibronectin
Procedure: Two approaches to monitor cell spreading were used: after a predetermined time-point and at multiple time points.
1) Spreading after a Predetermined Time-Point.
(§1) Human dermal fibroblasts (12 h after seeding) were treated with the indicated drug (or vehicle) in 0.1% serum for the indicated time. After drug treatment, the cells were lifted with 20 mM EDTA (ethylenediaminetetraacetic acid) in PBS (phosphate-buffered saline), pelleted at 300×g for 5 min and resuspended in 1% serum in the presence of drug or vehicle. Cell suspensions were then set in a rotator for 1 hour before seeding them on fibronectin-coated coverslips for 30 min, undisturbed, to allow attachment and spreading. After spreading, coverslips were gently rinsed with PBS and fixed in 4% formaldehyde for 10 min at room temperature. Cells were stained with rhodamine—phalloidin and imaged by epifluorescence microscopy. At least 50 cells were quantified per experiment by tracing and measuring cell areas by using the magic wand tool in ImageJ software (National Institutes of Health (NIH), Bethesda, MD, USA).
(§2) Cell spreading on fibronectin-coated surfaces of cells treated with RhoA modulators in comparison to untreated cells was observed. Cells were fixed and stained with fluorescently labeled-phalloidin after 30 min spreading time at 37° C. Following imaging, cell area measurements were performed.

Normal fibroblasts = assay: as above; format: cell-based, Human; settings: 30 min after seeding on fibronectin
Procedure: as §1, §2

normal cells = assay: Cell adhesion by time-lapse microscopy; format: cell-based, Human
Procedure: Human dermal fibroblasts were treated as described above, seeded on fibronectin-coated LabTek chambers, and allowed to attach and spread. Cells were imaged at intervals of 10 min after seeding for 8 h using 20× objective in a Zeiss Axiovert inverted microscope. Number of detaching cells was quantified every 10 min up to the first hour by using the cell counter tool in ImageJ (NIH). To determine spreading kinetics, individual cells were tracked in each time lapse image and were scored from 1-5 based on general cell morphology. Briefly, cells that were just attached and looked circular with no protrusions or visible extensions received a score of 1. Cells with needle-like (filopodia) projections were scored 2, cells with lamellopodia-like extensions were scored 3, cells with more extended lamellopodia-like extensions and increased cell area were given a score of 4, and a further increase in cell area, often accompanied by isotropic spread morphology, was given a score of 5. Alternatively, cells were treated as described above and allowed to attach on fibronectin-coated dishes. Immediately after seeding, the cells were imaged with a 10× objective simultaneously using up to 3 Cytosmart Imaging Systems (Lonza, Basel, Switzerland) at intervals of 30 s for 2 h. Number of cells attached was quantified every 10 min up to the first hour using the Cell Counter tool in ImageJ software (NIH).

HK2 OCRL1 K.O. cells = assay: Indirect immunofluorescence for lysosomes (Lamp2, autolysosomes); format: cell-based, Human; settings: rapamycin (10 nM) or WYE (1 μM)
Procedure: Following treatment with drugs, cells were washed and fixed with 4% formaldehyde-PBS for 10 min and immune-labeled for LAMP2 (lysosome-associated membrane protein 2). Random fields were imaged using a Zeiss Axiovert inverted microscope using a 40× objective with constant fluorescence exposure times.

LS patient cells [3] = assay: Viability/toxicity assessment (cell counting, morphology, MTT); format: cell-based, Human; settings: for toxicity (viability and stress-induced changes in morphology): LS cells after exposure to statins
Procedure: Cells were incubated with the indicated drugs for the specified times at different concentrations as described in low serum (0.1%) media to avoid substantial protein-mediated drug sequestration. In addition to cell counting post-treatment, a sample of cells seeded on fibronectin-coated coverslips was fixed and stained with fluorescein isothiocyanate (FITC)-phalloidin and DAPI (4′,6-diamidino-2-phenylindole) for cell morphology inspection. Viability was monitored by performing MTT (3-(4,5-dimethylthiazol-2-yl)-2,5-diphenyltetrazolium bromide) assays as follows: Following treatment of cells (in triplicates) with indicated drugs at different concentrations for specified times, media were aspirated and replaced with MTT solution (freshly prepared at 0.5 mg/ml in complete media) and incubated for 1.5 h. Additionally, a blank control with only MTT reagent containing no cells was also prepared. Following incubation, solution was aspirated and MTT was immediately solubilized using 1 mL DMSO (dimethylsulfoxide) (per well) by gentle pipetting. Absorbance values of solubilized MTT solution from the different wells were measured at 570 nm using a spectrophotometer.

[4] = current approved rapamycin treatments; cited from earlier work
[5] = test system: HK2 and HEK293T OCRL1 K.O. cells; assay: Cell spreading assay in kidney knock-out cells; format: cell-based, Human; settings: HK2 and HEK293T OCRL1 K.O. vs wild-type
Procedure: Normal (GM07492) and LS primary dermal fibroblasts (GM01676 and GM03265) were obtained from the NIHGMS Human Genetic Cell Repository (Coriell Institute for Medical Research, Camden, NJ, USA). Cells were maintained in Dulbecco's Modified Eagle Medium (DMEM), streptomycin/penicillin, 2 mM L-glutamine and 15% fetal bovine serum (FBS) at 37° C. in a 5% CO2 incubator. When needed, cells were transferred to fibronectin-coated surfaces (plates or coverslips) prepared by incubation with 10 μg/mL fibronectin for 2 h at 37° C. Normal human proximal tubule epithelial (HK2) and human embryonic kidney epithelial 293T (HEK293T) cells obtained from ATCC were grown in DMEM, streptomycin/penicillin, 2 mM L-glutamine and 10% FBS at 37° C. in a 5% CO2 incubator. OCRL1^−/− (OCRL K.O) HK2 and HEK293T cells were prepared by GenScript, Inc., Piscataway, NJ, USA, and maintained under the same conditions as their normal counterparts. Characterization of these cell lines has been described before (Hsieh et al., PLoS One 10.1371/jounal.pone.0192635 (Feb. 14, 2018)).
Human dermal fibroblasts (12 h after seeding) were treated with the indicated drug (or vehicle) in 0.1% serum for the indicated time. […] At least 50 cells were quantified per experiment by tracing and measuring cell areas by using the magic wand tool in ImageJ software (National Institutes of Health (NIH), Bethesda, MD, USA).

CC(C)n1nc(-c2ccc3oc(N)nc3c2)c2c(N)ncnc21 [INK128]
ciliogenesis / PC assembly defects in LS cells (LS patient cells [1]): rescue ciliogenesis defects in LS cells | mTOR activation / phosphorylation (mTOR pathway in LS cells): able to decrease mTOR phosphorylation

O=S(=O)(c1cccc2c(I)cccc12)N1CCCNCC1 [ML-7]
LS cell spreading phenotype (LS patient cells [2]): able to mitigate the cell spreading phenotype

CCCC[C@@H](C=O)NC(=O)[C@H](CC(C)C)NC(=O)OCc1ccccc1 [RhoA activator, calpeptin]
LS cell spreading phenotype (LS patient cells [2]): worsened the already impaired spreading ability of LS cells | cell spreading of normal cells (Normal fibroblasts): displayed a “LS-like” cell spreading phenotype | proportion of de-attaching cells (normal cells): increased proportion of de-attaching cells

C[C@@H]1COCCN1c1cc(=O)n2c(n1)N(Cc1cncc(Cl)c1)[C@H](C(F)(F)F)CC2 [SAR405]
ciliogenesis / PC assembly defects in LS cells (LS patient cells [1]): had no effect on ciliogenesis by LS cells | mTOR activation / phosphorylation (mTOR pathway in LS cells): did not affect mTOR activation

CNC(=O)Nc1ccc(-c2nc(N3CC4CCC(C3)O4)c3cnn(C4CCC5(CC4)OCCO5)c3n2)cc1 [WYE132]
ciliogenesis / PC assembly defects in LS cells (LS patient cells [1]): rescue ciliogenesis defects in LS cells | mTOR activation / phosphorylation (mTOR pathway in LS cells): able to decrease mTOR phosphorylation | autolysosome deficiencies (fraction of cells displaying autolysosomes) (HK2 OCRL1 K.O. cells): can be rescued

CC(C)c1c(C(=O)Nc2ccccc2)c(-c2ccccc2)c(-c2ccc(F)cc2)n1CC[C@@H](O)C[C@@H](O)CC(=O)O [atorvastatin]
LS cell spreading phenotype (LS patient cells [2]): mitigated to a certain extent the LS spreading phenotype

COCc1c(C(C)C)nc(C(C)C)c(/C=C/[C@@H](O)C[C@@H](O)CC(=O)O)c1-c1ccc(F)cc1 [cerivastatin]
toxicity (viability and stress-induced changes in morphology) (LS patient cells [3]): substantially toxic

CSCC[C@H](NC(=O)c1ccc(NC[C@@H](N)CS)cc1-c1ccccc1)C(=O)O [farnesylation inhibitor]
LS cell spreading phenotype (LS patient cells [2]): rescue the cell spreading phenotype of LS patient cells

O=S(=O)(c1cccc2cnccc12)N1CCCNCC1 [fasudil]
LS cell spreading phenotype (LS patient cells [2]): in contrast to the ROCK-inhibitor fasudil, the MLCK-inhibitor ML-7 was able to mitigate

O=C(O)C[C@H](O)C[C@H](O)/C=C/c1c(C2CC2)nc2ccccc2c1-c1ccc(F)cc1 [pitavastatin]
LS cell spreading phenotype (LS patient cells [2]): mitigated to a certain extent the LS spreading phenotype | ranking of statins: rescue effect over needed dose and toxicity (LS patient cells [2]; LS spreading defects): rosuvastatin>pitavastatin>>>simvastatin and others | toxicity (viability and stress-induced changes in morphology) (LS patient cells [3]): substantially toxic

CO[C@H]1C[C@@H]2CC[C@@H](C)[C@@](O)(O2)C(=O)C(=O)N2CCCC[C@H]2C(=O)O[C@H]([C@H](C)C[C@@H]2CC[C@@H](O)[C@H](OC)C2)CC(=O)[C@H](C)/C=C(\C)[C@@H](O)[C@@H](OC)C(=O)[C@H](C)C[C@H](C)/C=C/C=C/C=C/1C [rapamycin]
toxicity on LS cells (decrease in viability, MTT) (LS patient cells [3]; after 72 h-treatment): 10-15% | plasma levels [4]: 10 nM

C3 transferase [RhoA inhibitor]
cell spreading / membrane remodeling phenotype in cells from another LS patient (LS patient cells [2]; LS2 cells, FIG. 8A): confirmed | LS cell spreading phenotype (LS patient cells [2]): ameliorated the cell spread phenotype | cell spreading phenotype in OCRL1 K.O. kidney cells [5]: confirmed
